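Following 48 hours of exposure in 96-well plates, responses at five concentrations were used to interpolate endpoints linearly. At the GI50, growth is halved.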 The source made the active and inactive calls. Rule as the data show it: active = GI50 up to about 1.1 µM and inactive = higher. Where only a bound is given, the exact number is not on record here.

Test systems include A498; A549; EKVX; HCC 2998; HOP-92; HT-29; K562; M14; Malme-3M; NCI-H460; OVCAR-4; SK-MEL-2; SK-OV-3; SNB-75; SR; SW-620; UO-31.
Common to all, as to experiment: NCI tumour cell line growth inhibition, 48 h

Turning to `CC1=C(O)C(=O)C2C(=O)C1C(C)C2c1ccc(C)cc1` (stereo unspecified), the GI50 in the assay with A498, in the assay with A549, with EKVX, with HCC 2998, with HOP-92 and in the assay on HT-29 was > 100 µM (inactive) in each case. Also, the GI50 with K562, in the assay with M14, in the assay on Malme-3M, with NCI-H460, in the assay with OVCAR-4 and in the assay with SK-MEL-2 was > 100 µM (inactive) each time. For the same molecule, the GI50 with SK-OV-3 is > 100 µM (inactive); in the assay on SNB-75, 98.9 µM (inactive); with SR, > 100 µM (inactive); with SW-620, > 100 µM (inactive); in the assay on UO-31 it was > 100 µM (inactive).

`O=c1[nH]c2cc(-c3ccccc3)nc-2nn1-c1c(Cl)cc(Cl)cc1Cl`: the GI50 was 33 µM (inactive) in the assay with A498; 37.6 µM (inactive) in the assay with A549; 24.9 µM (inactive) in the assay with EKVX; 4.03 µM (inactive) in the assay with HCC 2998; 31.5 µM (inactive) in the assay on HOP-92; 34.4 µM (inactive) in the assay on HT-29. For the same molecule, the GI50 in the assay with K562 was 41.1 µM (inactive); with M14 it was 23.9 µM (inactive); in the assay with Malme-3M, 24.4 µM (inactive); in the assay with NCI-H460 it was 30.4 µM (inactive); with SK-MEL-2, 26.5 µM (inactive); with SK-OV-3 it was 25.8 µM (inactive). In addition, the GI50 with SR is 23.7 µM (inactive); in the assay on SW-620 it was 33.7 µM (inactive); in the assay on UO-31 it was 22.3 µM (inactive).

As for `COCCCNC(=O)C1C(=O)C(=O)N(CCCOC)C1=O` (stereo unspecified), the GI50 in the assay with A498, in the assay with A549, in the assay on EKVX, in the assay on HCC 2998, with HOP-92 and in the assay on HT-29 was > 100 µM (inactive) in each case. Further, the GI50 in the assay on K562, in the assay with M14, in the assay with Malme-3M, in the assay with OVCAR-4, in the assay on SK-MEL-2 and with SK-OV-3 was > 100 µM (inactive) in each case. Besides, the GI50 in the assay with SNB-75, in the assay on SR, in the assay on SW-620 and in the assay on UO-31 was > 100 µM (inactive) each time.

In the case of `COc1ccc(OC(C)=O)c2c1CCC=CC2=O`, the GI50 was 21.5 µM (inactive) with A498; 19.1 µM (inactive) with A549; 17.1 µM (inactive) in the assay with HCC 2998; 2.83 µM (inactive) in the assay on HOP-92; 12.3 µM (inactive) in the assay with HT-29; 3.76 µM (inactive) in the assay on K562. The GI50 in the assay on M14 is 6.78 µM (inactive); in the assay with Malme-3M it was 20.1 µM (inactive); in the assay on NCI-H460 it was 19.1 µM (inactive); in the assay with OVCAR-4, 20 µM (inactive); in the assay on SK-MEL-2 it was 17.8 µM (inactive); in the assay with SK-OV-3, 17.5 µM (inactive). In addition, the GI50 is 15.8 µM (inactive) with SNB-75, 15.1 µM (inactive) with SR, 13.2 µM (inactive) in the assay on SW-620 and 17.2 µM (inactive) with UO-31.

In the case of `COC1(OC)CC2C=C(S(=O)(=O)c3ccccc3)C1N(Cc1ccccc1)C2=O` (stereo unspecified), the GI50 with A498 was 22.4 µM (inactive); in the assay on A549 it was 33 µM (inactive); in the assay with EKVX, 91.4 µM (inactive); with HCC 2998, 60.3 µM (inactive); in the assay on HOP-92 it was 28.3 µM (inactive); in the assay on HT-29, 28.1 µM (inactive). Besides, the GI50 in the assay with K562 is 35 µM (inactive); in the assay with M14 it was 18.9 µM (inactive); in the assay on Malme-3M it was 24.9 µM (inactive); with NCI-H460 it was 29.3 µM (inactive); in the assay on OVCAR-4 it was 29.2 µM (inactive); in the assay with SK-OV-3, 88.1 µM (inactive). For the same molecule, the GI50 in the assay on SNB-75 is 36.5 µM (inactive); with SR it was 28.9 µM (inactive); in the assay on SW-620, 22.6 µM (inactive); in the assay with UO-31, 35.5 µM (inactive).

Turning to `N=C(N)N/N=C(/CC1OC(=O)c2ccccc21)c1ccc2ccccc2c1` (stereo unspecified), the GI50 is 16 µM (inactive) with A498; 23.1 µM (inactive) in the assay on EKVX; 17.3 µM (inactive) in the assay with HCC 2998; 22 µM (inactive) in the assay with HOP-92; 21.9 µM (inactive) in the assay on HT-29; 24.3 µM (inactive) in the assay on K562. Besides, the GI50 in the assay on M14 is 16.7 µM (inactive); with Malme-3M it was 14.5 µM (inactive); with NCI-H460 it was 16.4 µM (inactive); in the assay with OVCAR-4, 17.2 µM (inactive); with SK-MEL-2, 46.9 µM (inactive); in the assay with SK-OV-3 it was 21.9 µM (inactive). Moreover, the GI50 in the assay on SNB-75 was 20 µM (inactive); in the assay with SR, 14.2 µM (inactive); in the assay on UO-31, 17.8 µM (inactive).

As for `O=C(CSc1nc(=O)c(-c2ccccc2NC(=O)C(F)(F)F)n[nH]1)NC(=O)Nc1ccccc1`, the GI50 in the assay with A549 is > 100 µM (inactive); in the assay on EKVX it was 55.5 µM (inactive); in the assay with HCC 2998, > 100 µM (inactive); with HOP-92 it was > 100 µM (inactive); with HT-29 it was > 100 µM (inactive); in the assay on K562, 61.4 µM (inactive). Further, the GI50 in the assay on M14 is > 100 µM (inactive); with Malme-3M it was > 100 µM (inactive); in the assay on NCI-H460, 72.6 µM (inactive); with SK-MEL-2 it was > 100 µM (inactive); with SK-OV-3, 39 µM (inactive); in the assay with SNB-75, 21.3 µM (inactive). Besides, the GI50 in the assay with SR is > 100 µM (inactive); in the assay on SW-620 it was > 100 µM (inactive); in the assay on UO-31, 38.1 µM (inactive).

For the molecule `COc1cc(-c2cc(=O)c3c(O)c(OC)c(OC)c(OC)c3o2)ccc1O`, the GI50 in the assay with A498 is 2.61 µM (inactive); in the assay with A549 it was 27.3 µM (inactive); in the assay with EKVX, > 100 µM (inactive); in the assay on HCC 2998, 34.6 µM (inactive); with HOP-92, 2.33 µM (inactive); in the assay with K562, 17.8 µM (inactive). For the same molecule, the GI50 in the assay on M14 is 23.3 µM (inactive); in the assay with Malme-3M, 28.7 µM (inactive); in the assay with NCI-H460, 16.2 µM (inactive); in the assay on SK-MEL-2 it was 17.7 µM (inactive); in the assay on SK-OV-3, 11.2 µM (inactive); with SR, 23 µM (inactive). In addition, the GI50 is 31.7 µM (inactive) in the assay with SW-620 and 28.8 µM (inactive) with UO-31.

For `COc1cc(/C=C\c2ccc(Br)cc2)cc(OC)c1OC`, the GI50 was 0.01 µM (active) in the assay with A498; 0.000589 µM (active) with A549; 0.00385 µM (active) in the assay with EKVX; 0.0155 µM (active) in the assay with HCC 2998; 0.01 µM (active) in the assay on HOP-92; 0.01 µM (active) in the assay on HT-29. Further, the GI50 in the assay with K562 is 0.000386 µM (active); in the assay with M14 it was 0.000312 µM (active); in the assay on Malme-3M it was 0.0024 µM (active); in the assay with NCI-H460, 0.01 µM (active); with OVCAR-4, 0.0622 µM (active); in the assay on SK-MEL-2, 0.00794 µM (active). Moreover, the GI50 in the assay with SK-OV-3 was 58.2 µM (inactive); with SNB-75, 0.000422 µM (active); with SR, 0.01 µM (active); in the assay on SW-620, 0.000382 µM (active); in the assay with UO-31 it was 0.00321 µM (active).

Source of the values: ChEMBL document CHEMBL1201862, “PubChem BioAssay data set” (2004).
